Experimental data: US5468772A, “Tripterinin compound and method” (Pharmagenesis, Inc., priority 1993, dated 1995)

Tests used:
[1] = tested on: IL-1; details: RA patients, long term administration; cited from earlier work
[2] = tested on: TNFα; details: RA patients, long term administration; cited from earlier work
[3] = tested on: HIV; details: cited from earlier work
[4] = tested on: mouse thymocytes; assay: Inhibition of IL-1 action: IL-1 stimulated mouse thymocyte proliferation in presence of PHA; type: cell-based; details: tripterifordin 3.13 μg/ml, about 3 μg/ml, tripterinin 0.02 to 1 μg/ml
Description: The ability of tripterinin and tripterifordin to suppress the cell-proliferative effect of IL-1 in mouse thymocytes, an index of IL-1 action (O'Gara), was also examined. In this study, mouse thymocytes in culture were stimulated with IL-1 in the presence of phytohemagglutinin (PHA) and increasing concentrations of purified tripterinin or tripterifordin. The cells were cultured for 72 hours, and during the last four hours, incubated with tritiated thymidine. DNA synthesis was assessed by measurement of radiolabeled thymidine incorporation.
Mouse thymocytes were prepared, and the action of IL-1, which stimulates thymocyte proliferation, was measured using standard techniques (O'Gara). Three to six week old C3H/HeN mice were obtained from Simonsen Laboratories, Gilroy, Calif. and sacrificed by CO2 inhalation. Thymi were removed, separated from adherent non-thymic tissue, homogenized in Hank's balanced salt solution (Gibco) using a glass homogenizer, and centrifuged at 180×g for 10 minutes at 15° C. Following an additional wash in HBSS, the thymocytes were resuspended in RPMI 1640 tissue culture medium (Gibco) containing 50 μM 2-mercaptoethanol (Fisher), 2 mM glutamine (Gibco), 1 mM sodium pyruvate, non-essential amino acids, penicillin (100 U/ml) streptomycin (100 μg/ml), 10% heat inactivated fetal bovine serum and Phytohemagglutinin (PHA, Pharmacia, final concentration 10 μg/ml). Cells were cultured in round-bottom 96 well microtiter tissue culture plates, 6×10^5 cells per well in a volume of 100 μl. Tripterinin or tripterifordin was diluted in tissue culture medium and added to the wells in the presence and absence of IL-1 (recombinant human IL-1, R&D Systems catalog #201-LB, 0.1 ng/ml). Total volume was 150 μl per well.
Plates were incubated for 72 hours (95% air/5% CO2, 37° C.). During the last four hours of incubation, [^3 H]-thymidine (Amersham, […]) was added (0.5 μCi per well). Cells were harvested onto Whatman 934-AH glass microfiber filters and counted in a Beckman LS 6000 scintillation counter. Results were expressed as counts per minute per well.

[5] = tested on: human peripheral blood lymphocytes; assay: Suppression of human PBL proliferation in vitro ([3H]thymidine incorporation), with or without anti-CD3 (X-35); type: cell-based
Description: One measure of immunosuppression is suppression of stimulated peripheral blood lymphocyte (PBL) proliferation in vitro. In the assay detailed in Example 3, PBLs were activated in vitro by addition of anti-CD3 monoclonal antibody (X-35 antibody). At the same time, purified tripterinin or vehicle (control) was added to each culture, at selected concentrations. After 72 hours incubation, tritiated thymidine was added to the culture medium, and thymidine incorporation into DNA was assayed, as a measure of DNA synthesis associated with cell proliferation.
The ability of tripterifordin to inhibit anti-CD3 stimulated PBL proliferation was assayed at concentrations of 0, 0.78, 3.13, and 12.5 μg/ml, with the results shown in FIG. 9.
Human peripheral blood lymphocytes were prepared using an established method (Boyum). Human blood buffy coat samples, approximately 25 ml/donor, were obtained from the Stanford University Medical Center Blood Bank. Using sterile technique, the buffy coat samples were gently resuspended in a total volume of 100 ml with the addition of calcium and magnesium free Hank's balanced salt solution (HBSS, obtained from Gibco) at room temperature. A volume of 25 ml of the cell suspension was then layered onto 15 ml of Ficoll-Pacque (Pharmacia LKB Biotechnology, Inc.) in a 50 ml conical centrifuge tube. Tubes were centrifuged in a Beckman GPR tabletop centrifuge (GH-3.7 Rotor) at 400×g for 30 minutes at 15° C.
Following centrifugation, the PBL suspensions at the interfaces were transferred to new 50 ml tubes using a transfer pipette, and the PBL samples were resuspended in a total volume of 45 ml HBSS and centrifuged at 354×g for 10 minutes at 15° C. Supernatants were discarded. PBL's were resuspended in 10 ml HBSS, combined to make a total of 45 ml HBSS, and centrifuged at 265×g for 10 minutes at 15° C. The cell pellets were suspended in 10 ml of X-Vivo tissue culture medium (Bio Whittaker) and counted using a hemocytometer. Tissue culture medium was then added to achieve a final cell concentration of 1× 10^6 cells/ml. Additional dilutions were carried out as required for each assay.
Assays were carried out in 96 well sterile tissue culture plates (Costar 3790 and Costar 3595). A volume of 150 μl of X-Vivo medium or sterile distilled water was added to the outer wells of the plate to prevent evaporation of medium within the experimental wells. PBL's from 2 different donors were used in parallel in all experiments. A volume of 100 μl PBL suspension was added to each well using a multichannel pipette. Plates were incubated in an atmosphere of 93% air/7% CO2 in a tissue culture incubator at 37° C. X-35 (AMAC #0178), an anti CD-3 surface antigen antibody, was used at 5 ng/ml to stimulate PBL proliferation.
Tripterinin or tripterifordin was dissolved in ethanol (10 mg/ml) and then diluted in sterile X-Vivo tissue culture medium to obtain the final concentrations required for each experiment.
Four hours prior to the conclusion of incubation, 50 μl of X-Vivo tissue culture medium containing 8 μCi/ml [^3 H]Thymidine (Amersham, 49 Ci/mmol) was added to each tissue culture well. After 72 hours total incubation time, the cells were removed from the tissue culture wells and applied to filter paper using a cell harvester (Brandel Model MB-24). The filter paper was dried for one hour under a heat lamp and then cut into 1 cm discs. Each sample was placed in a scintillation vial containing 2 ml of scintillation fluid (Biosafe, Research Products International Corp.). Samples were counted in a Beckman LS 6000SC scintillation counter.

SMILES	serum level of IL-1 [1]	serum level of TNFα [2]	anti-HIV activity [3]	inhibition of IL-1 stimulated thymocyte proliferation [4]	inhibition of IL-1 stimulated thymocyte proliferation ([4]; listed as Tripterifordin)	inhibition of anti-CD3 stimulated PBL proliferation ([5]; highest concentration tested, 12.5 μg/ml, FIG. 9)	inhibitory effect on PBL proliferation ([5]; stimulated and unstimulated (tripterinin), FIG. 9 (tripterifordin))
O=C(O)c1cc(/N=N/c2ccc(S(=O)(=O)Nc3ccccn3)cc2)ccc1O [sulfasalazine]	decline	decline	–	–	–	–	–
C[C@@]1(O)C[C@@]23CC[C@H]4[C@@]5(CCC[C@]4(C)C(=O)OC5)[C@@H]2CC[C@H]1C3 [tripterifordin, reference compound]	–	–	anti-HIV principle	little or no inhibitory effect	failed to inhibit	failed to significantly inhibit PBL proliferation	little or no inhibitory effect
